Measurements: paper PMC6774072, “Azologization and repurposing of a hetero-stilbene-based kinase inhibitor: towards the design of photoswitchable sirtuin inhibitors” (Beilstein Journal of Organic Chemistry, 2019)

How the values were obtained:
[1] = isomer composition of 11 at thermal equilibrium and photostationary states, HPLC with UV–vis detection at the isosbestic points; format: physicochemical
Text: The photoisomerization could be reversed by exposure to visible light, i.e. 452 nm, albeit the PSS at 452 nm still comprised about 25% of (Z)-11 as determined by HPLC analysis using UV–vis detection at the isosbestic points (Table 2). Light of 500 nm could also reverse photoisomerization, but was not as effective as 452 nm radiation. […] Switching between the two PSS could be repeated several times without any observable fatigue of the compound (Figure 5).
Photochemistry: All photoisomerization experiments were conducted under ruby light of 630 nm. Illumination was executed using a Bio-Link 254 Crosslinker from Vilber-Lourmat equipped with six Vilber-Lourmat T8-C lamps (8 W, 254 nm) or six Vilber-Lourmat T8-L lamps (8W, 365 nm), respectively. Visible light radiation of 630 nm (red), 500 nm (green) and 452 nm (blue) was derived from a Paulmann FlexLED 3D strip. All compounds were irradiated in solution, using spectrophotometric grade solvents. Photoisomerization and UV–vis spectra measurement was conducted in quartz cuvettes at room temperature. […]
of 11 (1 mM) were injected before and after 5 minutes of 365 nm or 1 minute of 452 nm irradiation. Isocratic elution with 60% MeOH and 40% water (+ 0.1% HCOOH) for 12 minutes at 1 mL∙min−1 was applied and gave complete separation of the isomers. Integration of the peak areas at the isosbestic points (λobs = 244 nm and 270 nm) gave the relative percentage of (E)-11 and (Z)-11, respectively (Figure S5).
Table S1. Isomer composition ((E)-11 / (Z)-11) at the thermal equilibrium (∆) and the PSS after 5 minutes of 365 nm and 1 minute of 452 nm radiation. […]

[2] = PSS thermal half-life of 11 by UV/Vis spectroscopy; format: physicochemical; details: PSS after 365 nm irradiation; 50 µM in 5% DMSO (v/v) in enzyme assay buffer
Method: PSS thermal half-life of 11
The thermal half-life of 11 after 5 minutes of 365 nm irradiation was determined by UV/Vis-spectroscopy. Therefore, a 50 µM solution of 11 in 5% DMSO (v/v) in enzyme assay buffer was prepared and an initial spectrum of the thermal equilibrium recorded. After 5 minutes of irradiation with 365 nm the increase of absorbance at the thermal equilibrium maximum ( λ = 324 nm) was followed over a period of 96 hours (Figure S6). Absorbance at 324 nm was plotted as a function of time. A non-linear regression yielded the half-live of the PSS. Due to the slow rate of thermal isomerization only a short period could be measured. Therefore the limit value was set to 0.939 as this was the absorbance at 324 nm of 11 at the thermal […]
Figure S6: 11 (50 µM) in 5% DMSO (v/v) in enzyme assay buffer after 5 minutes of 365 nm irradiation. Absorbance at 324 nm of plotted as a function of time with non-linear fit (red line).
(1 picture or pasted object on this page, not shown here)
Table S2: Non-linear fit of measured values.

percentage of (Z)-11 in PSS ([1]; 365 nm irradiation): 84% | percentage of (Z)-11 in PSS ([1]; 452 nm irradiation, HPLC, UV–vis detection at isosbestic points): about 25% | Isomer composition ((E)-11 / (Z)-11) ([1]; PSS (365 nm), 5 minutes, λobs 244 nm): 17 / 83 | Isomer composition ((E)-11 / (Z)-11) ([1]; PSS (365 nm), 5 minutes, λobs 270 nm): 16 / 84 | Isomer composition ((E)-11 / (Z)-11) ([1]; PSS (452 nm), 1 minute, λobs 244 nm): 76 / 24 | Isomer composition ((E)-11 / (Z)-11) ([1]; PSS (452 nm), 1 minute, λobs 270 nm): 74 / 26 | Isomer composition ((E)-11 / (Z)-11) ([1]; thermal equilibrium (∆), λobs 244 nm): 98 / 2 | Isomer composition ((E)-11 / (Z)-11) ([1]; thermal equilibrium (∆), λobs 270 nm): 99 / 1 | t½ of PSS (thermal) [2]: 12.5 days
SMILES: NC(=O)c1cncc(N=Nc2ccc(F)cc2)c1 [Compound 11, 5-[(4-Fluorophenyl)diazenyl]nicotinamide]
